# Values of other authors as cited in patent publication US20070218128A1, “Manufacturing of Quick Release Pharmaceutical Compositions of Water Insoluble Drugs and Pharmaceutical Compositions Obtained By the Process of the Invention” (priority 2004, published 2007).
# Read-outs that look alike come from different tables or passages of the source.
# Tests used:
# [1] = for solubility in water and in 0.1 N HCl: water and 0.1 N HCl
# [2] = approximate values; for pKa1 / pKa2 / pKa3: Table 1 amino acids; for pKa: Table 1 alkaline substances, refer to the pKa of the acid
compound,measurement,setting,value
CC(=O)Oc1ccccc1C(=O)O [acetylsalicylic acid],solubility in water and in 0.1 N HCl,[1]; room temperature,practically insoluble
N=C(N)NCCC[C@H](N)C(=O)O [Arginine],pH,100 g/L H2O,pH ≈ 11.4
same,pKa1,[2],pKa1: 2.2
same,pKa2,[2],pKa2: 9.1
same,pKa3,[2],pKa3: 13.2
"COc1ccc2c3c1O[C@H]1[C@@H](O)C=C[C@H]4[C@@H](C2)N(C)CC[C@@]341 [Codeine, reference compound]",pH in saturated solution,saturated solution,solution ≈ 9.8)
NCCCC[C@H](N)C(=O)O [Lysine],pKa1,[2],pKa1: 2.2
same,pKa2,[2],pKa2: 8.9
N[C@@H](Cc1c[nH]cn1)C(=O)O [Histidine],pH,10 g/L H2O,pH ≈ 7.7
same,pKa1,[2],pKa1: 1.8
same,pKa2,[2],pKa2: 6.0
same,pKa3,[2],pKa3: 9.0
NN [Hydrazine],pKa,[2],8
CN1C(C(=O)Nc2ccccn2)=C(O)c2sc(Cl)cc2S1(=O)=O [lornoxicam],solubility in 0.1 N HCl,[1]; 0.1 N HCl,less than 0.1 % w/v
same,solubility at a pH of 0.1 N HCl,"[1]; 0.1 N HCl, room temperature",less than 1 mg/100 ml
O=C([O-])/C=C\C(=O)[O-].[Na+].[Na+] [Sodium maleate],pKa,[2],6.2
O=C([O-])/C=C/C(=O)[O-].[Na+].[Na+] [Sodium fumerate],pKa,[2],4.4
O=C([O-])[O-].[Na+].[Na+] [Di-sodium carbonate],pKa,[2],10.3
COc1ccc2c(c1)c(CC(=O)O)c(C)n2C(=O)c1ccc(Cl)cc1 [indometacin],solubility in water and in 0.1 N HCl,[1]; room temperature,practically insoluble
